From article PMC12138978, “Mu Opioid Receptor Positive Allosteric Modulator BMS-986122 Confers Agonist-Dependent G Protein Subtype Signaling Bias” (Biochemistry, 2025)
Several values for one entry are separate records, joined by “and”; a condition that tells them apart may be missing. Identical values can stand only once. Marks after values point to notes of the source that are not given here.

Key:
[1] = target: T1, human MOR signaling through GαoA (Homo sapiens, UniProt P35372); assay type: cell-based
T1 construct: host or cells: HEK 293T, transient
T1 sequence (P35372 whole entry): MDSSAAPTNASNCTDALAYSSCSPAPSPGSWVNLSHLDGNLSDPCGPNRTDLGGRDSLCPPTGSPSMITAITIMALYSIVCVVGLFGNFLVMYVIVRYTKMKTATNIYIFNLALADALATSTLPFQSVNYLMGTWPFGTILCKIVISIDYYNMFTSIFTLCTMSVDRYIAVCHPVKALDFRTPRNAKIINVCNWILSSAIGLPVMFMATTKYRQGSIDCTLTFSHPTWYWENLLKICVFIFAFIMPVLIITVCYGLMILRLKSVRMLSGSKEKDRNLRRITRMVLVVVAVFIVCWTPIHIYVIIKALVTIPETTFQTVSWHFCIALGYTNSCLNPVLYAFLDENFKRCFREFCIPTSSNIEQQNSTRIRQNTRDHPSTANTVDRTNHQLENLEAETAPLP
T1 sequence (P09471 2-354 partner limits assumed): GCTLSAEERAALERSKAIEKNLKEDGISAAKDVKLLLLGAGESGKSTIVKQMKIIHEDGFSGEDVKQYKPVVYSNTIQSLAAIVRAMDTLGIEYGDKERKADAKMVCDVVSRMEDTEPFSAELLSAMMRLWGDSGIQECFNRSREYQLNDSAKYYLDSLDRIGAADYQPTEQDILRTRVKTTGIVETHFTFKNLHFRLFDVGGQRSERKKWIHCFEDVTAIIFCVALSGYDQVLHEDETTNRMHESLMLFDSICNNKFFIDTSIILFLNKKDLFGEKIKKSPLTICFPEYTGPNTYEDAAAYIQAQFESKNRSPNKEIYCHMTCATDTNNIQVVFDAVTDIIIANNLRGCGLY

[2] = target: T2, human MOR signaling through Gαi2 (Homo sapiens, UniProt P35372); assay type: cell-based
T2 construct: host or cells: HEK 293T, transient
T2 sequence (P35372 whole entry): as the sequence (P35372 whole entry) above
T2 sequence (P04899 2-355 partner limits assumed): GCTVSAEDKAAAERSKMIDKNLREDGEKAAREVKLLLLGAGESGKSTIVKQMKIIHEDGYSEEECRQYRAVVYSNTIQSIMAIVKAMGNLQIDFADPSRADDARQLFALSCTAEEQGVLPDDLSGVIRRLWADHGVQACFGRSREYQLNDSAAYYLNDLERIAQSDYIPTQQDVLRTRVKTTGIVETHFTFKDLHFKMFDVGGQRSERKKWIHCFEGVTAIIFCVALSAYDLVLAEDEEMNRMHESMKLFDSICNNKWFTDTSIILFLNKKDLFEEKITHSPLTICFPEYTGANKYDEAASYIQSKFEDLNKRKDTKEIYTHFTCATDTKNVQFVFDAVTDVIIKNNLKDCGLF

[3] = target: T3, human MOR signaling through Gαz (Homo sapiens, UniProt P35372); assay type: cell-based
T3 construct: host or cells: HEK 293T, transient
T3 sequence (P35372 whole entry): as the sequence (P35372 whole entry) above
T3 sequence (P19086 2-355 partner limits assumed): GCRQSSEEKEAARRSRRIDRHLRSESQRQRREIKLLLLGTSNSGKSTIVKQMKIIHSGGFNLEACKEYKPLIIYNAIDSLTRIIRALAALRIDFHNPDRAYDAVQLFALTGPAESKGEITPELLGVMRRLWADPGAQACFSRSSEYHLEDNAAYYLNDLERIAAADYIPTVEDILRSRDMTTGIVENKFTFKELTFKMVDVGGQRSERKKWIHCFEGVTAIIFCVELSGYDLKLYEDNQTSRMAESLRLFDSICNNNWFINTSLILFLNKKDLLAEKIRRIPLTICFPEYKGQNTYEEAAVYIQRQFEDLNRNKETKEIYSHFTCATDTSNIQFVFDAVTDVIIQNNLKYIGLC

[4] = target: T4, human MOR signaling through GαoB (Homo sapiens, UniProt P35372); assay type: cell-based
T4 construct: host or cells: HEK 293T, transient
T4 sequence (P35372 whole entry): as the sequence (P35372 whole entry) above
T4 sequence (P09471 2-354 isoform P09471-2 partner limits assumed): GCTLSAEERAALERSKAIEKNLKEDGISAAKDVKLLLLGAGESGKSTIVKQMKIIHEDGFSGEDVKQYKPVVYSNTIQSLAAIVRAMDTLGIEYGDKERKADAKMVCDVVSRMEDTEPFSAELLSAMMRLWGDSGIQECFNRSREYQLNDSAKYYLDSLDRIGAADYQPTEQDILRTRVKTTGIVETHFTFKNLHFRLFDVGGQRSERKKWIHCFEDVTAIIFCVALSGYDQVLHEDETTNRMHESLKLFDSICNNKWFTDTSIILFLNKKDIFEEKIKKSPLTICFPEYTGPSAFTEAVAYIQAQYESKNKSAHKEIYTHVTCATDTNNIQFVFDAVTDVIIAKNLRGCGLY

[5] = test system: human MOR signaling through different Gα subunits; assay: nanoBRET assay, comparison or average across Gα subunits; assay type: cell-based; conditions: for Average maximal increase in potency (EC50) caused by BMS-986122: average over Gα subunits, 10 μM BMS-986122
[6] = target: human MOR (Homo sapiens, UniProt P35372); assay: [3H]naloxone competition binding, MOR-CHO cell membranes, low-affinity buffer; conditions: fold change of Ki, vehicle vs 10 μM BMS-986122
Sequence of human MOR (P35372 whole entry): as the sequence (P35372 whole entry) above
Procedure: Chinese hamster ovary cells stably expressing the human MOR (MOR-CHO; obtained from Dr. George Uhl, NIDA Intramural Research Program, Baltimore, MD) were cultured in 10 cm dishes in Dulbecco’s modified Eagle’s medium (DMEM) supplemented with 5% fetal bovine serum and 100 U/mL penicillin–streptomycin at 37 °C in a 10% CO2 atmosphere. Cell membranes were isolated and homogenized as previously described, and membrane protein concentrations were determined with bovine serum albumin as the control as previously described. Membranes were stored at −80 °C until use.
[^3H]­Naloxone was used at a final concentration of 1.0 nM, and nonspecific binding was measured using 10 μM unlabeled naloxone. Membranes were added last to the incubation tube. All assays were performed at 25 °C and terminated by rapid vacuum filtration through Whatman #32 glass fiber filters using a Brandel cell harvester (Biomedical Research and Development Laboratories Inc., Gaithersburg, MD) followed by three ice-cold washes with 50 mM Tris-HCl, pH 7.4. Samples were collected and counted in 2 mL of Ecoscint A scintillation fluid (National Diagnostics, Atlanta, GA) for 2 min each using a LS 6500 scintillation counter (Beckman Coulter Inc., Fullerton, CA).
For competition binding experiments, the specific binding of the radioligand in the absence of other competing compounds was set at 100%. The percent of control binding was calculated for increasing concentrations of the competing compounds. A three- or four-parameter logistic curve was fit to the data by using SigmaPlot 11 (Systat Software Inc., San Jose, CA). […] Ki values were calculated as described previously. Statistical differences between Ki values were calculated using a two-tailed Student’s t test. Receptor binding data were reported as the mean Ki value ± SEM from three separate experiments performed in triplicate.

[7] = target: T5, human MOR signaling through Gαi3 (Homo sapiens, UniProt P35372); assay type: cell-based
T5 construct: host or cells: HEK 293T, transient
T5 sequence (P35372 whole entry): as above
T5 sequence (P08754 2-354 partner limits assumed): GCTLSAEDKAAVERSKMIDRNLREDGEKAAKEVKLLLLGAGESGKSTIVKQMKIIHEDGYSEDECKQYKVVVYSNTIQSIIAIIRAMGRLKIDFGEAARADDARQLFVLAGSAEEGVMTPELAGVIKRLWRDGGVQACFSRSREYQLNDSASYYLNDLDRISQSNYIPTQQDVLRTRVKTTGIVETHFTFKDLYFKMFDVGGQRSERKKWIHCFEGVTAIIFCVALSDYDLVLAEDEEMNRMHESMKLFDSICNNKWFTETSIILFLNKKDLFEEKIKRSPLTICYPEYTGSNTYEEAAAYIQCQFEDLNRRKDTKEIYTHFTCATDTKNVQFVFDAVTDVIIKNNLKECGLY

[8] = target: T6, human MOR signaling through Gαi1 (Homo sapiens, UniProt P35372); assay type: cell-based
T6 construct: host or cells: HEK 293T, transient
T6 sequence (P35372 whole entry): as the sequence (P35372 whole entry) above
T6 sequence (P63096 2-354 partner limits assumed): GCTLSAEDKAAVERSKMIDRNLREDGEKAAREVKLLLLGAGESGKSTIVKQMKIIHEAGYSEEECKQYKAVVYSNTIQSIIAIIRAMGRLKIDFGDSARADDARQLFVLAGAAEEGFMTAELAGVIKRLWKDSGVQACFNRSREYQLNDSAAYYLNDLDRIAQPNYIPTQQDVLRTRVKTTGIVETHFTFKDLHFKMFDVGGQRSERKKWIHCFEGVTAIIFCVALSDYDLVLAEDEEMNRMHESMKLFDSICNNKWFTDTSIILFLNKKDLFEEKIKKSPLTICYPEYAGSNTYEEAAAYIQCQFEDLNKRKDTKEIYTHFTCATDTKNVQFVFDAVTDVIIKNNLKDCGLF

[9] = target: human mu opioid receptor (MOR) (human) (UniProt P35372)
Sequence of human mu opioid receptor (MOR) (human) (P35372 whole entry): as the sequence (P35372 whole entry) above

[10] = target: human mu opioid receptor (MOR) (human) (UniProt P35372); assay: radioligand binding; competition with 1.0 nM [3H]naloxone on MOR-CHO cell membranes (50 ug membrane protein), in the presence of 10 uM BMS-986122; 60 min, 25 C; 50 mM Tris-HCl pH 7.4, 100 mM NaCl, 5 mM MgCl2, 1 mM EDTA, 1 mM DTT, 50 uM GDP (low-affinity buffer)
[11] = target: T7, human MOR signaling through GαoA, GαoB and Gαi3 (Homo sapiens, UniProt P35372); assay: TruPATH BRET2 assay in HEK 293T cells compared with nanoBRET; assay type: cell-based; conditions: GαoB and Gαi3, 10 μM BMS-986122, Student's t test
T7 construct: host or cells: HEK 293T, transient
T7 sequence (P35372 whole entry): as above

[12] = target: T8, MOR signaling through GαoB-i3ct (Homo sapiens, UniProt P35372); assay: nanoBRET assay, MOR signaling through GαoB-i3ct chimera (data not shown); assay type: cell-based
T8 construct: expressed in transfected cells; host or cells: HEK 293T (inferred: same nanoBRET system)
T8 sequence (P35372 whole entry): as above

[13] = target: T9, human MOR signaling through Gαz with RGS20 (Homo sapiens, UniProt P35372); assay: nanoBRET assay, MOR signaling through Gαz with RGS20 (RGSz1) coexpression; assay type: cell-based; conditions: RGS20 coexpressed
T9 construct: host or cells: HEK 293T, transient
T9 sequence (P35372 whole entry): as above
T9 sequence (P19086 2-355 partner limits assumed): as the sequence (P19086 2-355 partner limits assumed) above

[14] = target: human mu opioid receptor (MOR) (human) (UniProt P35372); assay: radioligand binding; competition with 1.0 nM [3H]naloxone on MOR-CHO cell membranes (50 ug membrane protein), vehicle; 60 min, 25 C; 50 mM Tris-HCl pH 7.4, 100 mM NaCl, 5 mM MgCl2, 1 mM EDTA, 1 mM DTT, 50 uM GDP (low-affinity buffer)

C[C@@H](NC(=O)[C@@H](N)Cc1ccc(O)cc1)C(=O)NCC(=O)N(C)[C@@H](Cc1ccccc1)C(=O)NCCO [DAMGO, [D-Ala 2, N-MePhe 4, Gly-ol]-enkephalin]
ΔpEC50 [1]: 0.667 ± 0.022 | ΔpEC50 [2]: 0.712 ± 0.064 | ΔpEC50 [3]: 0.529 ± 0.087 | ΔpEC50 [4]: 0.791 ± 0.109 | Average maximal increase in potency (EC50) caused by BMS-986122 [5]: 4.5 fold | Ki (Veh)/Ki (BMS) [6]: 6.8 **** | ΔpEC50 [7]: 0.467 ± 0.104 | ΔpEC50 [8]: 0.596 ± 0.023

methionine-enkephalin (met-enkephalin) acetate (peptide)
EC50, nanoBRET G protein activation in HEK 293T cells, MOR signaling through Gαi1, vehicle [9]: 52 nM | EC50, nanoBRET G protein activation in HEK 293T cells, MOR signaling through Gαi1, with 10 μM BMS-986122 [9]: 10 nM | EC50, nanoBRET G protein activation in HEK 293T cells, MOR signaling through Gαi3, with 10 μM BMS-986122 [9]: 8.7 nM | EC50, nanoBRET G protein activation in HEK 293T cells, MOR signaling through GαoA, vehicle [9]: 53 nM | EC50, nanoBRET G protein activation in HEK 293T cells, MOR signaling through GαoB, vehicle [9]: 53 nM | EC50, nanoBRET G protein activation in HEK 293T cells, MOR signaling through GαoB, with 10 μM BMS-986122 [9]: 14 nM | EC50, nanoBRET G protein activation in HEK 293T cells, MOR signaling through Gαz, with 10 μM BMS-986122 [9]: 17 nM | Ki [10]: 48 nM

Cc1ccccc1COc1ccc(C2C3=C(CC(C)(C)CC3=O)OC3=C2C(=O)CC(C)(C)C3)cc1 [BMS-986187]
ΔΔlog(τ)oB-i3 ([5]; 7-hydroxymitragnine as agonist, 10 μM PAM, relative transduction coefficients compared between Gαi3 and GαoB): 0.157

CSCC[C@H](NC(=O)[C@H](Cc1ccccc1)NC(=O)CNC(=O)CNC(=O)[C@@H](N)Cc1ccc(O)cc1)C(=O)O [Met-Enkephalin, methionine-enkephalin]
Average maximal increase in potency (EC50) caused by BMS-986122 [5]: 3.8 fold

COc1cc(Br)ccc1C1SCCN1S(=O)(=O)c1ccc(Cl)cc1 (stereo not drawn) [BMS-986124]
Antagonism of the effect of 3 μM BMS-986122 on the potency of DAMGO [2]: antagonized the effect of 3 μM BMS-986122, but not completely | Antagonism of the effect of 3 μM BMS-986187 on the potency of DAMGO [2]: partially block the effect of 3 μM BMS-986187

CC[C@@H]1CN2CC[C@@]3(O)C(=Nc4cccc(OC)c43)[C@@H]2C[C@@H]1/C(=C\OC)C(=O)OC [7-Hydroxymitragynine]
Δlog(τ) in TruPATH compared with nanoBRET [11]: not statistically different | Efficacy modulation by BMS-986122 [12]: reduced | Intrinsic efficacy [12]: increased substantially | Emax [3]: 33 ± 3.0% and 65 ± 4.1% | Ki (Veh)/Ki (BMS) [6]: 1.1 ns

CC(C)=CCN1CCC2(C)c3cc(O)ccc3CC1C2C (single isomer, unassigned; (-)) [(−)-Pentazocine]
Emax with RGS20 coexpression versus without [13]: dramatically reduced | Emax [1]: 48 ± 2.2% and 88 ± 3.0% | Emax [2]: 35 ± 2.0% and 66 ± 4.3% | Emax [3]: 105 ± 1.8% and 110 ± 6.7% | Emax [4]: 74 ± 0.33% and 96 ± 2.6% | Ki (Veh)/Ki (BMS) [6]: 1.0 ns | Emax [7]: 70 ± 1.8% and 102 ± 1.8% | Emax [8]: 56 ± 1.4% and 105 ± 1.2%

[D-Ala 2, N-MePhe 4, Gly-ol]-enkephalin (DAMGO) acetate (peptide)
EC50, nanoBRET G protein activation in HEK 293T cells, MOR signaling through Gαi1, vehicle [9]: 58 nM | EC50, nanoBRET G protein activation in HEK 293T cells, MOR signaling through Gαi2, vehicle [9]: 46 nM | EC50, nanoBRET G protein activation in HEK 293T cells, MOR signaling through Gαi2, with 10 μM BMS-986122 [9]: 9.1 nM | EC50, nanoBRET G protein activation in HEK 293T cells, MOR signaling through Gαi3, vehicle [9]: 24 nM | EC50, nanoBRET G protein activation in HEK 293T cells, MOR signaling through Gαi3, with 10 μM BMS-986122 [9]: 7.3 nM | EC50, nanoBRET G protein activation in HEK 293T cells, MOR signaling through GαoA, with 10 μM BMS-986122 [9]: 10 nM | EC50, nanoBRET G protein activation in HEK 293T cells, MOR signaling through GαoB, vehicle [9]: 74 nM | EC50, nanoBRET G protein activation in HEK 293T cells, MOR signaling through GαoB, with 10 μM BMS-986122 [9]: 11 nM | EC50, nanoBRET G protein activation in HEK 293T cells, MOR signaling through Gαz, vehicle [9]: 10 nM | EC50, nanoBRET G protein activation in HEK 293T cells, MOR signaling through Gαz, with 10 μM BMS-986122 [9]: 3.2 nM | Ki [10]: 35 nM | Ki [14]: 240 nM
